Measurements: US9029403B2, “Treatment of ovarian cancer with benzylidenebenzohydrazides” (Memorial Sloan-Kettering Cancer Center, priority 2011, dated 2015)

Tested on: NSG mice
Assay: In vivo toxicity in NSG mice
Settings: intraperitoneal, 1, 2.5, 5, 10, 20 or 40 mg/kg, once or three times a week for 4 weeks
Method: The compound designated example 10 above was tested in vivo for toxicity in NSG mice. As used herein, NSG and NSG mice mean the NOD scid gamma (NSG) mice, or an equivalent, available from The Jackson Laboratory and which are the NOD.Cg-Prkdc^scid I12rg^tm1Wj1/SzJ JAX® Mice strain. The NSG mice were injected intraperitoneally with 1, 2.5, 5, 10, 20 or 40 mg/kg of the compound designated example 10 above for once or three times a week for 4 weeks.

Q: With `Cc1ccc(C(=O)N/N=C/c2c(O)ccc3ccccc23)cn1` [example 10] as the compound, how does the overt toxicity read?
A: no overt toxicity
